One data set is described as follows: Kinetic solubility. It is filed as physicochemical. The note with it: phosphate buffer, pH 7.4, aqueous buffer, kinetic from dmso stock, phosphate buffer 20 mM pH 7.4, 2% DMSO, room temperature. As to the method: Kinetic solubility of compounds of the present invention were tested according the following procedure.
(a) Buffer Solution Phosphate Buffer 20 mM pH 7.4 is prepared using Sorensen Phosphate Buffer 0.2 M pH 7.4 (EMS) in a 1000 mL volumetric flask (b) 2% DMSO in Phosphate Buffer 20 mM pH 7.4 is prepared by using 1 mL Dimethylsulfoxide (Merck) and 49 ml Sorensen Phosphate Buffer 20 mM pH 7.4 (c) Acetonitrile/Methanole/Eluent A (1:1:2; v/v/v) is prepared by using 50 mL Acetonitrile (Merck), 50 mL Methanol (Merck) and 100 mL Eluent A (d) Eluent A is prepared by using 1 mL Formic Acid (Merck) and 999 mL Ultrapure water (e) Eluent B is prepared by using 1 mL Formic Acid (Merck) and 999 mL Acetonitrile (Merck) (f) Filtration plate: Millipore MultiScreen HTS HV (0.45 μm) 96 Well (Millipore)
98 μL buffer solution (a) is added into a well of a 96 well filtration plate (f). Then 2 μL of 10 mM test compound solution in DMSO (Remp tube) is added. The filtration plate is incubated at room temperature for 120 minutes while agitating at 250 rpm and centrifuged with the PP-Plate (g) as receiver plate below (2500 rpm, 3 min). The 50 μL of filtrate is taken from the receiver plate and mixed with 50 μL of 2% DMSO in buffer pH 7.4 solution (b) (dilution factor=2) in a HPLC Vial (i)+(j).
Standard is prepared by diluting 2 μL of the same 10 mM test compound solution (Remp tube) diluted with 198 μL Acetonitrile/Methanole/Eluent A (1:1:2; v/v/v) (c) to prepare a 100 μM standard solution in a HPLC Vial (i)+(j).
Column temperature: 37° C. Autosampler: room temperature (approx. 25° C.) Gradient programme: […]
Injection volume: 10 μL Wavelength: Suitable wavelength (maximum sensitivity) selected out of wavelength range of 190-400 nm using a DAD detector.
L [μg/mL]=(area sample*concentration standard*dilution factor sample)/(area standard*dilution factor standard)
S [mol/L]=[…] Calculation: […]

The nature of data set [1]: Microsomal stability (intrinsic clearance), mouse liver microsomes. Details: microsomal CLint: dose or concentration left out as unconfirmed. It is filed as in vitro ADME. The note with it: mouse, liver microsomes, pH 7.4, mouse liver microsomes. The source says:
(§1) A microsomal stability assay is used to measure in vitro clearance (Clint). The assay involves measuring the rate of disappearance of a compound due to its intrinsic attitude to be metabolized (“intrinsic” meaning that the disappearance is not affected by other properties like permeability, binding etc. that play a role when quantifying in vivo clearance). The microsomal stability (intrinsic clearance, Clint) and thus metabolic stability is generally given as μl/min/mg protein. It can be visualized as the volume of solution that 1 mg of microsomes is able to clear of the compound in one minute.
(§2) A Tecan Genesis workstation (RSP 150/8) was used for to perform the microsomal incubations. Analysis was carried out using a Waters ACQUITY UPLC system coupled to an ABSciex API3000 mass spectrometer. Data analysis was performed using Assay Explorer (Symyx).
(§3) Mobile phases: A=0.1% formic acid in water; B=acetonitrile
(§4) Flow rate: 0.750 mL/min; Detection: ESI, MRM; Injection: 10 μL; Column temperature: 50° C.
(§5) Potassium phosphate buffer: 0.05 M potassium phosphate buffer pH 7.4 containing 1 mM MgCl2 NADPH (nicotinamide adenine dinucleotide phosphate): 22.5 mg NADPH-Na4 in 1.8 ml potassium phosphate buffer Acetonitrile: 50 Vol % acetonitrile (1 volume acetonitrile, 1 volume water) DMSO: 20 Vol % DMSO in water Stock solution of 20 mg/ml human or mouse liver microsomes (protein)/ml in phosphate buffer Stock solution of 10 mM compound in 100% DMSO
For orientation: Microsomes from liver hold many membrane-bound enzymes, among them those of drug oxidation.

A short description of data set [2]: Microsomal stability (intrinsic clearance), human liver microsomes. It is filed as in vitro ADME. The note with it: human, liver microsomes, pH 7.4, human liver microsomes. Also noted: microsomal CLint: dose or concentration left out as unconfirmed.
Text: as §1, §2, §3, §4, §5

The target in data set [3] is T1, Human recombinant His-tagged PFKFB3 (Homo sapiens, UniProt Q16875).
T1 construct: His; made in house
The data set can be described thus: PFKFB3 IC50 determination assay (modified ADP-Glo in vitro kinase assay). It is filed as biochemical. The note with it: human recombinant PFKFB3 25 nM, ATP 20 μM, fructose-6-phosphate 2 μM, 2 h, rt; read-out: PFKFB IC50. On the procedure:
In vitro kinase assay used to determine IC50 values for tested inhibitors is based on a modified ADP-Glo™ system (Promega) and consists of two parts:
1. Kinase reaction—performed in optimized conditions. At this step PFKFB3 phosphorylates its substrate fructose-6-phosphate using ATP as a source of phosphate to produce fructose-2,6-bisphosphate and ADP. Reaction is performed at Km values for ATP and substrate using optimized buffer composition and time of the reaction. Human recombinant His-tagged PFKFB3 (PFKFB3 BATCH II SEC) with confirmed activity is produced and purified in-house. 2. Detection of ADP as a product of the reaction using ADP-Glo™ system. This part is conducted by using the commercially available kit ADP-Glo™ Kinase Assay (Promega, cat. No# V9103) according to manufacturer's instruction, modified by 5× dilutions of assay reagents (both ADP-Glo™ Reagent and Kinase Detection Solution). Reproducibility and reliability of this modification is confirmed in an optimization process.
Test compounds are dissolved in DMSO and then transferred to the V-bottom 96-well plate. For IC50 determination ten 10× serial dilutions starting from 100 μM are prepared.
Two mixes are prepared on ice: Mix 1—containing appropriate kinase amount in 2× reaction buffer (100 mM TRIS pH 8.0) and Mix 2—containing 2.31× concentrated substrate (Fructose-6-phosphate) and ATP in MilliQ water. 15 μL per well of Mix 1 is transferred to assay wells of 96-well white plate. Next, 2 μl of 15× concentrated test compound in DMSO is added to Mix 1 for 20 min pre-incubation, followed by addition of Mix 2 (13 μl/well). Total reaction volume is 30 μL per well. Samples are tested in duplicates. Final concentration of DMSO in the reaction is 6.7%. Conditions needed for performing PFKFB3 (PFKFB3 BATCH II SEC) in vitro kinase assay are given below:
This protocol is based on Technical Bulletin, ADP-Glo™ Kinase Assay (Promega) and is adapted to 96-well plate containing 30 μL reaction mixture:
30 μL of 5× diluted ADP-Glo™ Reagent is added to each well of 96-well plate containing 30 μL of reaction mixture. The plate is incubated for 90 minutes on a shaker at rt. 60 μL of 5× diluted Kinase Detection Solution is added to each well of 96-well plate containing 60 μL of the solution (ratio of kinase reaction volume to ADP-Glo™ Reagent volume to Kinase Detection Solution volume is maintained at 1:1:2). Plate is incubated for 40 minutes on a shaker at rt, protected from light. Luminescence is measured in the plate reader Synergy 2 (BioTek).
Luminescent readouts for compounds tested in 10 concentrations (routinely from 100 μM to […], […] serial dilutions) in duplicates, as well as for positive control, are first normalized to no-substrate negative control by its subtraction. In the next step, % of normalized positive control is calculated for each data point and plotted against test compound concentration:
% of control—percent of positive control normalized to no-substrate negative control Lumcpd—luminescence of test compound Lumneg—luminescence of no-substrate negative control Lumpos—luminescence of positive control
IC50 parameter is determined by the GraphPad Prism 5.0 software [log(inhibitor) vs. response—Variable slope (four parameters)].
On the technique in general: ADP-Glo first removes unused ATP, then detects ADP through luciferase.

Values after ≈ are worked out from the molar mass of the structure shown.

T1 sequence (Q16875 whole entry): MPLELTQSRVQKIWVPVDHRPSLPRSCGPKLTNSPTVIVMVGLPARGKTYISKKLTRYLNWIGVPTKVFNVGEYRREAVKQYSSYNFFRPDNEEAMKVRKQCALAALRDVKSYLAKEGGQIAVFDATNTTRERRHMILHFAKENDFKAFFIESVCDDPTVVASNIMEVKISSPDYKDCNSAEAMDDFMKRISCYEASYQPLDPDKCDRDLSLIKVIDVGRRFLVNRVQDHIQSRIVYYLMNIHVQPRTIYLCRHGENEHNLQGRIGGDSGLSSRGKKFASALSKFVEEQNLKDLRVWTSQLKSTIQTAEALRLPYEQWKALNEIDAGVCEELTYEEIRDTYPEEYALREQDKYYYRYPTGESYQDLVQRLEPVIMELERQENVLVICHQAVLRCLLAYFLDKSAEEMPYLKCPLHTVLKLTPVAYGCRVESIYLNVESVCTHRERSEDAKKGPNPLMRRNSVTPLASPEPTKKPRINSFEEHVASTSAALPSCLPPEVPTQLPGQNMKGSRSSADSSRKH

Turning to `COc1ccc([C@H](Nc2cc(-c3ccc4ccn(C)c4c3)c3nccnc3c2)c2cnnn2C)cn1` [Comparative Example 2, N—[(S)-(6-methoxypyridin-3-yl)(1-methyl-1H-1,2,3-triazol-5-yl)methyl]-8-(1-methyl-1H-indol-6-yl)quinoxalin-6-amine, reference compound], the solubility (kinetic) – broadly, solubility judged after dilution from a stock solution rather than from solid – at 120 min in the data set “Kinetic solubility” was 22 µM (≈ 10.5 µg/mL). Besides, the figures for the microsomal CLint in data set [1] and in data set [2] were 134 µL/min/mg and 113 µL/min/mg, respectively. For the same compound, the IC50 – broadly, the midpoint of a concentration-inhibition curve – in data set [3] was determined as 3.5 nM.
For `COc1ccc([C@@H](Nc2cc(-c3ccc4ccn(C)c4c3)c3nccnc3c2)c2cnnn2C)cn1` [Comparative Example 3, N—[(R)-(6-methoxypyridin-3-yl)(1-methyl-1H-1,2,3-triazol-5-yl)methyl]-8-(1-methyl-1H-indol-6-yl)quinoxalin-6-amine, reference compound], in that order: 22 µM (≈ 10.5 µg/mL), 287 µL/min/mg, 267 µL/min/mg and 530 nM.
For `Cn1ccc2ccc(-c3cc(NC(c4cccnc4)c4ccc(=O)[nH]n4)cc4nccnc34)cc21` (stereo not drawn) [Example 1, 6-{[8-(1-Methyl-1H-indol-6-yl)-quinoxalin-6-ylamino]-pyridin-3-yl-methyl}-2H-pyridazin-3-one], in that order: 69 µM (≈ 31.7 µg/mL), 122 µL/min/mg, 78 µL/min/mg and 32 nM.

For the origin of these results see patent publication US20190256499A1, “SUBSTITUTED QUINOXALINE DERIVATIVES AS INHIBITORS OF PFKFB” (priority 2016, published 2019).
